TGI and GI50 data for 8 compounds are collected here from PubChem BioAssay (NCI).

Values joined by “and” are separate entries in the source; they are usually repeats but may differ in a detail not shown here. Identical values can stand only once.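 These data come from cells grown in 96-well plates and exposed to compound for 48 hours at five concentrations. Abbreviation: GI50, concentration required for 50% inhibition of growth. TGI: total growth inhibition.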

Test in all cases: NCI tumour cell line growth inhibition, 48 h
The subject of assay [1] is NCI-H226 lung.
Assay [2] deals with SK-MEL-2 melanoma.
The test system of assay [3] is SR leukemia.
Assay [4] concerns OVCAR-4 ovarian.
The test system of assay [5] is IGROV1 ovarian.
The test system of assay [6] is U251 CNS.
Assay [7] deals with OVCAR-8 ovarian.
Assay [8] deals with HT29 colon.
Assay [9] has as its system UO-31 renal.
Assay [10] concerns MCF7 breast.

Consider `Cc1ccc(C(=O)N2C/C(=C/c3ccccc3)C(=O)/C(=C/c3ccccc3)C2)cc1`, for which the TGI in [1] was more than 100 µM; in assay [2], more than 100 µM; in assay [3], 9.09 µM; in [4], more than 100 µM; in assay [5] it was more than 100 µM; in [6], more than 100 µM. Besides, the TGI is more than 100 µM in assay [7], 7 µM in assay [8], more than 100 µM in assay [9] and more than 41.9 µM in assay [10]. Besides, the GI50 in [2] is more than 62.8 µM; in assay [3] it was 0.461 µM; in assay [4] it was 16.5 µM; in [5], 12.8 µM; in assay [6], 3.28 µM; in assay [7], 5.09 µM. Further, the GI50 in [8] is 2.03 µM; in [9], 10.2 µM; in [10] it was 0.387 µM.
Consider `N=C(N)c1ccc(OCCCCCOc2ccc(C(=N)N)cc2)cc1`, for which the GI50 is 5.24 µM and 6.96 µM and 14.2 µM in assay [1]; 7.11 µM in assay [2]; 13.3 µM and 13.6 µM and > 100 µM in [3]; 3.6 µM in assay [4]; 10.2 µM and 13 µM and 35.5 µM in [5]; 2.79 µM in assay [6]. Moreover, the GI50 is 2.05 µM in assay [7]; 5.05 µM and 15.8 µM and 35.5 µM in [8]; 2.59 µM in assay [10]. In addition, the TGI was > 50 µM and 30.2 µM and 58.8 µM in [1]; 16.9 µM and 47.1 µM and 22.4 µM in [2]; 44.4 µM and 58.5 µM and > 100 µM in assay [3]; 18.7 µM and 35.4 µM and 53.5 µM in assay [4]; > 50 µM and 27 µM and > 100 µM in assay [5]; 13.2 µM and 22.5 µM and 34.5 µM in assay [6]. Further, the TGI is 12.9 µM and 22.5 µM and 86.6 µM in assay [7]; > 50 µM and 60.4 µM and > 100 µM in [8]; more than 100 µM in assay [9]; 14.4 µM and 25.9 µM and 28.5 µM in assay [10].
For `CCC1=C(c2ccc(OC)cc2)CC[C@]2(CCNC2=O)[C@@H]1C`, the TGI in [1] is more than 100 µM; in [2] it was 52.4 µM; in assay [3] it was 76.6 µM; in assay [4] it was 69.5 µM; in assay [5] it was more than 100 µM; in [6] it was 86.4 µM. Further, the TGI is more than 100 µM in assay [7], 59.6 µM in assay [8], 66.3 µM in [9] and 46.7 µM in assay [10].
Regarding `COc1ccc(C(=O)/C=C/c2ccc(OCc3ccccc3)c(OC)c2)cc1OC`, the GI50 in assay [1] was 3.18 µM; in [2] it was 11 µM; in assay [3], 2.47 µM; in assay [4], 5.01 µM; in assay [5], 5.04 µM; in assay [6], 3.51 µM. Besides, the GI50 in [7] is 3.1 µM; in assay [8], 3.19 µM; in [9], 4.16 µM; in assay [10], 3.02 µM. Besides, the TGI in [1] is 36.6 µM; in assay [2], 36.3 µM; in assay [3], more than 100 µM; in assay [4] it was more than 100 µM; in assay [5] it was more than 100 µM; in assay [6], more than 100 µM. For the same compound, the TGI was more than 100 µM in [7], 89.7 µM in assay [8], more than 100 µM in assay [9] and more than 100 µM in assay [10].
Regarding `Cc1ccccc1CNc1c2ccccc2nc2ccccc12`, the GI50 was 2.24 µM in [1]; 2.01 µM in assay [2]; 1.72 µM in [3]; 1.92 µM in assay [4]; 2 µM in assay [5]; 2.91 µM in assay [6]. Further, the GI50 in assay [7] was 2.63 µM; in [8], 1.97 µM; in assay [9] it was 1.33 µM; in assay [10], 1.84 µM. Moreover, the TGI came to 6.17 µM in [1]; 4.19 µM in assay [2]; 5.87 µM in assay [3]; 6.4 µM in [4]; 5.01 µM in assay [5]; 11.4 µM in [6]. In addition, the TGI amounted to 12.2 µM in assay [7], 10 µM in assay [8], 3.91 µM in [9] and 4.78 µM in assay [10].
In the case of `CC(C)C/C(=N\NC(=O)c1ccncc1)c1cc(Cl)ccc1O`, the GI50 was 0.848 µM in [1]; 1.87 µM in [2]; 0.206 µM in assay [3]; 0.26 µM in assay [4]; 0.224 µM in assay [5]; 0.303 µM in assay [6]. The GI50 is 0.255 µM in [7], 0.441 µM in [8], 0.211 µM in assay [9] and 0.484 µM in assay [10]. Moreover, the TGI in assay [1] is 22.5 µM; in assay [2], 31.9 µM; in assay [3] it was 29 µM; in assay [4], more than 32.4 µM; in assay [5] it was 17.3 µM; in assay [6] it was more than 72.1 µM. In addition, the TGI in [7] was more than 49.2 µM; in [8], more than 100 µM; in assay [9], 18.6 µM; in assay [10], 12.3 µM.
For `CCOC(=O)C1=C(C)N(Cc2ccc(Cl)cc2Cl)[C@]2(C#N)C(O)=C(Cl)C(Cl)=C(O)[C@]12C#N`, the GI50 in [1] was more than 100 µM; in assay [2], more than 100 µM; in assay [3] it was 16 µM; in [4] it was more than 100 µM; in assay [5], more than 100 µM; in assay [6], 44.8 µM. The GI50 in assay [7] was 73.4 µM; in [8], more than 100 µM; in assay [9] it was 92 µM; in assay [10] it was 39.3 µM. Besides, the TGI was more than 100 µM in assay [1]; more than 100 µM in assay [2]; 38.9 µM in assay [3]; more than 100 µM in assay [4]; more than 100 µM in assay [5]; more than 100 µM in assay [6]. Besides, the TGI in assay [7], in assay [8], in [9] and in assay [10] was more than 100 µM each time.
On to `N#Cc1cccc(C2C3=C(COC3=O)N(CCO)c3cc4c(cc32)CCC4)c1` (stereo not drawn), for which the GI50 in assay [1] is 1.67 µM; in [2], 0.319 µM; in [3], 0.0486 µM; in assay [4] it was 0.374 µM; in assay [5], 0.172 µM; in assay [6], 0.196 µM. Besides, the GI50 in [7] was 0.237 µM; in [8] it was 0.16 µM; in [9], 0.165 µM; in assay [10], 0.0411 µM. The TGI in [1] is more than 50 µM; in assay [2], more than 44.5 µM; in assay [3] it was more than 50 µM; in assay [4], more than 50 µM; in assay [5], more than 43.8 µM; in assay [6], more than 50 µM. Further, the TGI was more than 50 µM in assay [7], more than 18.8 µM in assay [8], more than 31.7 µM in assay [9] and more than 50 µM in assay [10].
